Reference: patent US9266832B2, “Compounds for the treatment of neurodegenerative diseases” (Katholieke Universiteit Levun, priority 2010, dated 2016)

Tested on: M17-TAU P301L cells
Experiment: Tau-induced toxicity experiment: LDH leakage of retinoic acid incubated M17-TAU P301L cells
Type: cell-based
Conditions: Homo sapiens, Neuroblastoma cell, 168 h; reduction of LDH activity of retinoic acid incubated M17-TAU P301L neuroblastoma cells, 7 days
Text: A TAU expression plasmid was constructed by sub-cloning the cDNA of human TAU-P301L (encoding for TAU with proline 301 substituted by a leucine residue) into mammalian expression vector pcDNA3.1 resulting in plasmid pcDNA3.1-TAU P301L. Plasmids pcDNA3.1 and pcDNA3.1-TAU P301L were transfected to human neuroblastoma cells ([…]; ATCC No. CRL-2267) and independent clonal lines with the plasmids stably integrated into the genome were selected. […] Expression of the TAU P301L genes in the cell lines was confirmed by Western analysis.
In degenerated or dead cells lactate dehydrogenase (LDH) is leaked out of the cells into the extracellular environment due to a loss of plasma-membrane integrity. This principle was used to determine cytotoxicity by quantifying the level of leaked LDH into the growth medium.
The detailed method for determining TAU cytotoxicity was as follows: From appropriate precultures of M17-3.1 and M17-TAU(P301L) cells were seeded at 2500 cells/cm2 in Optimem Reduced Serum without phenol red (Gibco, Cat. 31985-047) supplemented with 1% fetal calf serum, 1 mM sodium pyruvate, 1× non-essential amino acids, 500 μg/ml G418 0.5× antibiotic/antimycotic. After 3 h of incubation at 37° C./5% CO2 1 volume of Optimem Reduced Serum (same as described above; except without fetal calf serum) supplemented with 2.5 μM retinoic acid (RA) was added. The cells were further incubated for 7 days. Subsequently, LDH activity was determined using Promega Cytotox 96 Non-Radioactive cytotoxicity assay, (Cat. G1780) according the supplier's instructions.
The M17-TAU P301L cell line made it possible to assess the ability of novel compounds to counteract TAU cytotoxicity. […] These measurements were used to calculate EC50 values of table 2.

In order of rising EC50:
1. O=C(NCCc1c[nH]c2ccc(Cl)cc12)c1ccc(Cc2cccc(Cl)c2)cc1 [Cpd046, N-(2-(5-chloro-1H-indol-3-yl)ethyl)-4-(3-chlorobenzyl)benzamide]  7 nM
2. O=C(NCCc1c[nH]c2ccc(Cl)cc12)c1ccc(Cc2cccc(F)c2)cc1 [Cpd048, N-(2-(5-chloro-1H-indol-3-yl)ethyl)-4-(3-fluorobenzyl)benzamide]  13 nM
3. N#Cc1cccc(Cc2ccc(C(=O)NCCc3c[nH]c4ccc(Cl)cc34)cc2)c1 [Cpd032, N-(2-(5-chloro-1H-indol-3-yl)ethyl)-4-(3-cyanobenzyl)benzamide]  14 nM
4. O=C(NCCc1c[nH]c2ccc(Cl)cc12)c1cccc(Cc2cccc(F)c2)c1 [Cpd053, N-(2-(5-chloro-1H-indol-3-yl)ethyl)-3-(3-fluorobenzyl)benzamide]  17 nM
5. O=C(NCCc1c[nH]c2ccc(Cl)cc12)c1cccc(Cc2ccc(F)cc2)c1 [Cpd052, N-(2-(5-chloro-1H-indol-3-yl)ethyl)-3-(4-fluorobenzyl)benzamide]  20 nM
6. O=C(NCCc1c[nH]c2ccc(Cl)cc12)c1ccc(Cc2ccoc2)cc1 [Cpd081, N-(2-(5-chloro-1H-indol-3-yl)ethyl)-4-(furan-3-ylmethyl)benzamide]  23 nM
7. Cc1ccc2[nH]cc(CCNC(=O)c3ccc(Cc4cccc(F)c4)cc3)c2c1 [Cpd084, 4-(3-fluorobenzyl)-N-(2-(5-methyl-1H-indol-3-yl)ethyl)benzamide]  26 nM
8. Cc1ccc(Cc2ccc(C(=O)NCCc3c[nH]c4ccc(Cl)cc34)cc2)cc1 [Cpd033, N-(2-(5-chloro-1H-indol-3-yl)ethyl)-4-(4-methylbenzyl)benzamide]  31 nM
9. O=C(NCCc1c[nH]c2ccc(Cl)cc12)c1ccc(Cc2cccc(C(F)(F)F)c2)cc1 [Cpd042, N-(2-(5-chloro-1H-indol-3-yl)ethyl)-4-(3-(trifluoromethyl)benzyl)benzamide]  31 nM
10. Cc1cccc(Cc2ccc(C(=O)NCCc3c[nH]c4ccc(Cl)cc34)cc2)c1 [Cpd036, N-(2-(5-chloro-1H-indol-3-yl)ethyl)-4-(3-methylbenzyl)benzamide]  40 nM
11. O=C(NCCc1c[nH]c2ccc(Cl)cc12)c1ccc(Cc2cccc(F)c2)c(F)c1 [Cpd100, N-(2-(5-chloro-1H-indol-3-yl)ethyl)-3-fluoro-4-(3-fluorobenzyl)benzamide]  44 nM
12. O=C(NCCc1c[nH]c2ccc(Cl)cc12)c1ccc(Cc2cc(F)ccc2F)cc1 [Cpd102, N-(2-(5-chloro-1H-indol-3-yl)ethyl)-4-(2,5-difluorobenzyl)benzamide]  49 nM
13. O=C(NCCc1c[nH]c2ccc(Cl)cc12)c1cccc(Cc2cccc(C(F)(F)F)c2)c1 [Cpd044, N-(2-(5-chloro-1H-indol-3-yl)ethyl)-3-(3-(trifluoromethyl)benzyl)benzamide]  55 nM
14. O=C(NCCc1c[nH]c2ccc(Cl)cc12)c1ccc(Cc2ccccc2Cl)cc1 [Cpd047, N-(2-(5-chloro-1H-indol-3-yl)ethyl)-4-(2-chlorobenzyl)benzamide]  65 nM
15. N#Cc1ccc2[nH]cc(CCNC(=O)c3ccc(Cc4cccc(F)c4)cc3)c2c1 [Cpd115, N-(2-(5-cyano-1H-indol-3-yl)ethyl)-4-(3-fluorobenzyl)benzamide]  75 nM
16. O=C(NCCc1c[nH]c2ccc(Cl)cc12)c1cccc(Cc2ccccc2)c1 [Cpd010, 3-benzyl-N-(2-(5-chloro-1H-indol-3-yl)ethyl)benzamide]  78 nM
17. O=C(NCCc1c[nH]c2ccc(Cl)cc12)c1ccc(Cc2ccccc2C(F)(F)F)cc1 [Cpd041, N-(2-(5-chloro-1H-indol-3-yl)ethyl)-4-(2-(trifluoromethyl)benzyl)benzamide]  80 nM
18. O=C(NCCc1c[nH]c2ccc(Cl)cc12)c1ccc(Nc2cccc(F)c2)cc1 [Cpd106, N-(2-(5-chloro-1H-indol-3-yl)ethyl)-4-(3-fluorophenylamino)benzamide]  82 nM
19. COc1ccccc1Cc1ccc(C(=O)NCCc2c[nH]c3ccc(Cl)cc23)cc1 [Cpd029, N-(2-(5-chloro-1H-indol-3-yl)ethyl)-4-(2-methoxybenzyl)benzamide]  84 nM
20. O=C(NCCc1c[nH]c2ccc(Cl)cc12)c1ccc(Cc2ccc(F)cc2)cc1 [Cpd061, N-(2-(5-chloro-1H-indol-3-yl)ethyl)-4-(4-fluorobenzyl)benzamide]  86 nM
21. O=C(NCCc1c[nH]c2ccc(Cl)cc12)c1cccc(Cc2cncc(F)c2)c1 [Cpd069, N-(2-(5-chloro-1H-indol-3-yl)ethyl)-3-((5-fluoropyridin-3-yl)methyl)benzamide]  90 nM
22. COc1ccccc1Cc1cccc(C(=O)NCCc2c[nH]c3ccc(Cl)cc23)c1 [Cpd030, N-(2-(5-chloro-1H-indol-3-yl)ethyl)-3-(2-methoxybenzyl)benzamide]  96 nM
23. O=C(NCCc1c[nH]c2ccc(Cl)cc12)c1cccc(Cc2ccc(C(F)(F)F)cc2)c1 [Cpd040, N-(2-(5-chloro-1H-indol-3-yl)ethyl)-3-(4-(trifluoromethyl)benzyl)benzamide]  103 nM
24. O=C(NCCc1c[nH]c2ccc(Cl)cc12)c1ccc(CNCc2ccccc2)cc1 [Cpd019, 4-((benzylamino)methyl)-N-(2-(5-chloro-1H-indol-3-yl)ethyl)benzamide]  103 nM
25. O=C(NCCc1c[nH]c2ccc(Cl)cc12)c1ccc(Cc2cc(F)cc(F)c2)cc1 [Cpd067, N-(2-(5-chloro-1H-indol-3-yl)ethyl)-4-(3,5-difluorobenzyl)benzamide]  111 nM
26. O=C(NCCc1c[nH]c2ccc(F)cc12)c1cccc(Cc2cccc(F)c2)c1 [Cpd082, N-(2-(5-fluoro-1H-indol-3-yl)ethyl)-3-(3-fluorobenzyl)benzamide]  112 nM
27. N#Cc1cccc(Nc2cccc(C(=O)NCCc3c[nH]c4ccc(Cl)cc34)c2)c1 [Cpd064, N-(2-(5-chloro-1H-indol-3-yl)ethyl)-3-(3-cyanophenylamino)benzamide]  122 nM
28. COc1cccc(Cc2cccc(C(=O)NCCc3c[nH]c4ccc(Cl)cc34)c2)c1 [Cpd058, N-(2-(5-chloro-1H-indol-3-yl)ethyl)-3-(3-methoxybenzyl)benzamide]  125 nM
29. O=C(NCCc1c[nH]c2ccc(Cl)cc12)c1ccc(Cc2ccco2)cc1 [Cpd087, N-(2-(5-chloro-1H-indol-3-yl)ethyl)-4-(furan-2-ylmethyl)benzamide]  133 nM
30. O=C(NCCc1c[nH]c2ccc(Cl)cc12)c1ccc(Cc2ccccc2)cc1 [Cpd015, 4-benzyl-N-(2-(5-chloro-1H-indol-3-yl)ethyl)benzamide]  154 nM
31. O=C(NCCc1c[nH]c2ccc(Cl)cc12)c1cccc(CNCc2cccs2)c1 [Cpd022, N-(2-(5-chloro-1H-indol-3-yl)ethyl)-3-((thiophen-2-ylmethylamino)methyl)benzamide]  159 nM
32. O=C(NCCc1c[nH]c2ccc(Cl)cc12)c1ccc(Cn2cccn2)cc1 [Cpd011, 4-((1H-pyrazol-1-yl)methyl)-N-(2-(5-chloro-1H-indol-3-yl)ethyl)benzamide]  173 nM
33. O=C(NCc1c[nH]c2ccc(Cl)cc12)c1ccc(Cc2cc(F)cc(F)c2)cc1 [Cpd073, N-((5-chloro-1H-indol-3-yl)methyl)-4-(3,5-difluorobenzyl)benzamide]  242 nM
34. O=C(NCCc1c[nH]c2ccc(Cl)cc12)c1ccc(Oc2ccccc2)cc1 [Cpd093, N-(2-(5-chloro-1H-indol-3-yl)ethyl)-4-phenoxybenzamide]  293 nM
35. COc1cccc(Cc2cccc(C(=O)NCCc3c[nH]c4ccc(Cl)cc34)c2)c1F [Cpd066, N-(2-(5-chloro-1H-indol-3-yl)ethyl)-3-(2-fluoro-3-methoxybenzyl)benzamide]  386 nM
36. Cc1cccc(C)c1Cc1ccc(C(=O)NCCc2c[nH]c3ccc(Cl)cc23)cc1 [Cpd062, N-(2-(5-chloro-1H-indol-3-yl)ethyl)-4-(2,6-dimethylbenzyl)benzamide]  398 nM
37. Cc1[nH]c2ccc(Cl)cc2c1CCNC(=O)c1ccc(Cc2cccc(F)c2)cc1 [Cpd098, N-(2-(5-chloro-2-methyl-1H-indol-3-yl)ethyl)-4-(3-fluorobenzyl)benzamide]  535 nM
38. O=C(NCCc1c[nH]c2ccc(-c3ccccc3)cc12)c1ccc(Cc2cccc(F)c2)cc1 [Cpd111, 4-(3-fluorobenzyl)-N-(2-(5-phenyl-1H-indol-3-yl)ethyl)benzamide]  537 nM
39. Cn1cc(CCNC(=O)c2ccc(Cc3cccc(F)c3)cc2)c2cc(Cl)ccc21 [Cpd091, N-(2-(5-chloro-1-methyl-1H-indol-3-yl)ethyl)-4-(3-fluorobenzyl)benzamide]  581 nM
40. O=C(NCCc1c[nH]c2ccc(Cl)cc12)c1cccc(CNC2CCCCC2)c1 [Cpd024, N-(2-(5-chloro-1H-indol-3-yl)ethyl)-3-((cyclohexylamino)methyl)benzamide]  724 nM
41. O=C(NCCc1c[nH]c2ncc(Cl)cc12)c1ccc(Cc2cccc(F)c2)cc1 [Cpd101, N-(2-(5-chloro-1H-pyrrolo[2,3-b]pyridin-3-yl)ethyl)-4-(3-fluorobenzyl)benzamide]  1050 nM
